The values below come from ChEMBL document CHEMBL1124032, “Quantitative structure-activity relationships for the inhibition of Escherichia coli dihydrofolate reductase by 5-(substituted benzyl)-2,4-diaminopyrimidines” (1988).

For experiment [1], the target named is T1, Dihydrofolate reductase (Escherichia coli) (UniProt P0ABQ4).
T1 sequence (whole entry): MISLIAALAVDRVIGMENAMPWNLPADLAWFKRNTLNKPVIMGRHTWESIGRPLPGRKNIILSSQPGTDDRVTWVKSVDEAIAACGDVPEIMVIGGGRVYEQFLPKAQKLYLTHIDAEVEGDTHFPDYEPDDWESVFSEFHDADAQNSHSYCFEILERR
Description: Apparent inhibitory (log 1/Ki) activity against Escherichia coli dihydrofolate reductase

The subject of experiment [2] is Escherichia coli. The experiment is described as follows: The logarithm of the inverse of the concentration (log 1/C) for the inhibition of Escherichia coli 1515 (Escherichia coli) growth by 80%. The class given is functional.
Experiment [3] concerns Escherichia coli. Briefly: The logarithm of the inverse of the concentration (log 1/C) for the inhibition of Escherichia coli MB 1428 growth by 80%. The class given is functional.

For `Nc1ncc(Cc2ccc([N+](=O)[O-])cc2)c(N)n1`, the Log 1/Ki app in experiment [1] turned out to be 6.2.
For the compound `CCCCOc1ccc(Cc2cnc(N)nc2N)cc1OC`, the “Log 1/C” value in the experiment on Escherichia coli [2] is 5.93; in the experiment on Escherichia coli [3], 4.98. The compound further displayed a Log 1/Ki app in experiment [1] of 9.01.
The like results for `CCCOc1cc(Cc2cnc(N)nc2N)cc(Br)c1OC` were, in that order, 4.91, 6.07 and 8.96.
For the compound `Nc1ncc(Cc2cc(OCc3ccccc3)cc(OCc3ccccc3)c2)c(N)n1`, in experiment [1], the Log 1/Ki app came to 8.77.
Take `CCCCOc1cc(Cc2cnc(N)nc2N)cc(Br)c1OC`: the “Log 1/C” value in the experiment with Escherichia coli [2] turned out to be 5.02; with Escherichia coli [3] it was 6.24. Moreover, in experiment [1], the Log 1/Ki app was 8.96.
In experiment [1], `CCCOc1cc(Cc2cnc(N)nc2N)cc(OCC)c1` displayed a Log 1/Ki app of 8.49.
With `COc1ccc(Cc2cnc(N)nc2N)cc1OS(C)(=O)=O`, the results for the “Log 1/C” value with Escherichia coli [2] and with Escherichia coli [3] were 6.42 and 4.13, respectively. This compound also returned a Log 1/Ki app in experiment [1] of 8.96.
With `Nc1ncc(Cc2ccc(OC(F)(F)F)cc2)c(N)n1`, in experiment [1], the Log 1/Ki app was determined as 6.57.
Same read-out and setting: the value for `CS(=O)(=O)Oc1cccc(Cc2cnc(N)nc2N)c1` was 6.92.
In the case of `COCCOc1ccc(Cc2cnc(N)nc2N)cc1OC`, the “Log 1/C” value in the experiment with Escherichia coli [2] was found to be 5.82; with Escherichia coli [3] it was 4.3. The same compound registered a Log 1/Ki app in experiment [1] of 9.25.
`CCCOc1cc(Cc2cnc(N)nc2N)cc(OCCC)c1` showed a Log 1/Ki app in experiment [1] of 8.8.
Regarding `COCCOc1cc(Cc2cnc(N)nc2N)ccc1OC`, the Log 1/Ki app in experiment [1] was found to be 8.74.
As for `CCOc1cc(Cc2cnc(N)nc2N)cc(OCC)c1`, the figures for the “Log 1/C” value in the experiment on Escherichia coli [2] and with Escherichia coli [3] were 6.54 and 4.77, respectively. Also, in experiment [1], the Log 1/Ki app amounted to 9.11.
On to `COc1ccc(Cc2cnc(N)nc2N)cc1C(F)(F)F`, for which the Log 1/Ki app in experiment [1] came to 7.69.
Still for that read-out and setting: with `CS(=O)(=O)Oc1ccc(Cc2cnc(N)nc2N)cc1` the figure was 8.15; with `Nc1ncc(Cc2ccc(OCc3ccccc3)cc2)c(N)n1`, 8.7; with `Cc1cc(C)cc(Cc2cnc(N)nc2N)c1`, 8.05.
Turning to `COc1cc(Cc2cnc(N)nc2N)ccc1O`, the results for the “Log 1/C” value in the experiment with Escherichia coli [2] and in the experiment on Escherichia coli [3] were 6.45 and 3.51, respectively. In experiment [1], this compound displayed a Log 1/Ki app of 9.05.
The like results for `COc1cc(Cc2cnc(N)nc2N)ccc1OCc1ccccc1` were, in that order, 4.96, 5.02 and 9.43.
`CC(=O)Nc1ccc(Cc2cnc(N)nc2N)cc1[N+](=O)[O-]` had a Log 1/Ki app in experiment [1] of 6.97.
As for `COc1ccc(Cc2cnc(N)nc2N)cc1OCc1ccccc1`, the entries for the “Log 1/C” value in the experiment with Escherichia coli [2] and in the experiment on Escherichia coli [3] were 4.96 and 5.02, respectively. Also, the Log 1/Ki app in experiment [1] turned out to be 10.
